In patent US20090181929A1, “ORGANIC COMPOUNDS” (priority 2006, published 2009):

Molecular target: T1, CETP (Homo sapiens, UniProt P11597)
T1 construct: Human plasma (50 μL), assay buffer (35 μL) and test compound; tissue New Drug Development Research Center, Inc; host or cells: human EDTA plasma from healthy men
T1 sequence (P11597 18-493): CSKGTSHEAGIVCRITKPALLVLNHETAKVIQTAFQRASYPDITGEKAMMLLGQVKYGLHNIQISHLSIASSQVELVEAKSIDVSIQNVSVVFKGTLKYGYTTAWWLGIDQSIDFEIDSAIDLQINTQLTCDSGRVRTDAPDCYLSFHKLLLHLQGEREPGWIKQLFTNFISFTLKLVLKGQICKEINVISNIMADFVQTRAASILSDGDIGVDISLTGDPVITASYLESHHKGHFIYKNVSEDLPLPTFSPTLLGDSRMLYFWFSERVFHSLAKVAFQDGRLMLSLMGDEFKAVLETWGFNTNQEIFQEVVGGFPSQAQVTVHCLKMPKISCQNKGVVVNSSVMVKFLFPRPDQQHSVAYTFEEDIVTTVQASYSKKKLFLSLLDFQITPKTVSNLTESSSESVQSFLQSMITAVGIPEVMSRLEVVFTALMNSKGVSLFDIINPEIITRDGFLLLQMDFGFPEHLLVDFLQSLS
Assay: in vitro CETP activity in human plasma (BODIPY-CE donor microemulsion, fluorescence)
Assay type: biochemical
Experimental: For purposes of detecting the in vitro and in vivo CETP activity, human pro-apolipoprotein AI (pro-apoAI) and donor microemulsion are prepared as follows. The cDNA of human pro-apoAI (NCBI accession number: NM_000039) is cloned from human liver Quick-Clone™ cDNA (Clontech, CA) and inserted to a pET28a vector (Novagen, Germany) for bacterial expression. Expressed protein as a fusion protein with 6×His-tag at N-terminus in BL-21 Gold (DE3) (Strategene, CA) is purified using HiTrap Chelating (GE Healthcare, CT). Pro-apoAI containing microemulsion as a donor particle is prepared following previous reports (J. Biol. Chem., 280:14918-22). Glyceryl trioleate (62.5 ng, Sigma, Mo.), 3-sn-phosphatidylcholine (583 ng, Wako Pure Chemical Industries, Japan), and cholesteryl BODIPY® FL C12 (250 ng, Invitrogen, CA) are dissolved in 1 mL of chloroform. The solution is evaporated, then residual solvent is removed in vacuum for more than 1 hr. The dried lipid mixture is dissolved in 500 μL of the assay buffer (50 mM Tris-HCl (pH7.4) containing 150 mM NaCl and 2 mM EDTA) and sonicated at 50° C. with a microtip (MICROSON™ ULTRASONIC CELL DISRUPTOR, Misonix, Farmingdale, N.Y.) at output power 006 for 2 min. After sonication, the solution is cooled to 40° C., added to 100 μg of human pro-apoAI, and sonicated at output power 004 for 5 min at 40° C. The solution, BODIPY-CE microemulsion as a donor molecule is stored at 4° C. after filtration through a 0.45 μm PVDF filter.
For purposes of detecting in vitro CETP activity, human EDTA plasma samples from healthy men are purchased from New Drug Development Research Center, Inc. Donor solution is prepared by a dilution of donor microemulsion with assay buffer. Human plasma (50 μL), assay buffer (35 μL) and test compound dissolved in dimethylsulfoxide (1 μL) are added to each well of 96 well half area black flat bottom plate. The reaction is started by the addition of donor solution (14 μL) into each well. Fluorescence intensities are measured every 30 min at 37° C. with excitation wave length of 485 nm and emission wavelength of 535 nm. The CETP activity (Fl/min) is defined as the changes of fluorescence intensity from 30 to 90 min. The IC50 value is obtained by the logistic equation (Y=Bottom+(Top-Bottom)/(1+(x/IC50)̂Hill slope) using Origin software, version 7.5 SR3.

Compound | IC50
CCN(CC1CCCC1)c1ncc(N2CCC2)cc1CN(Cc1cc(C(F)(F)F)cc(C(F)(F)F)c1)c1nnn(C)n1 [Compound 1, (5-Azetidin-1-yl-3-{[(3,5-bis-trifluoromethyl-benzyl)-(2-methyl-2H-tetrazol-5-yl)-amino]-methyl}-pyridin-2-yl)-cyclopentylmethyl-ethyl-amine] | 260 nM
CCN(CC1CCCC1)c1ncc(N(C)C(C)=O)cc1CN(Cc1cc(C(F)(F)F)cc(C(F)(F)F)c1)c1nnn(C)n1 [Compound 2, N-[5-{[(3,5-Bis-trifluoromethyl-benzyl)-(2-methyl-2H-tetrazol-5-yl)-amino]-methyl}-6-(cyclopentylmethyl-ethyl-amino)-pyridin-3-yl]-N-methyl-acetamide] | 370 nM
CCN(CC1CCCC1)c1nc(C)c(Br)cc1CN(Cc1cc(C(F)(F)F)cc(C(F)(F)F)c1)c1nnn(C)n1 [Compound 4, (3-{[(3,5-Bis-trifluoromethyl-benzyl)-(2-methyl-2H-tetrazol-5-yl)-amino]-methyl}-5-bromo-6-methyl-pyridin-2-yl)-cyclopentylmethyl-ethyl-amine] | 110 nM
CCCCN(C)c1cnc(N(CC)CC2CCCC2)c(CN(Cc2cc(C(F)(F)F)cc(C(F)(F)F)c2)c2nnn(C)n2)c1 [Compound 7, 3-{[(3,5-Bis-trifluoromethyl-benzyl)-(2-methyl-2H-tetrazol-5-yl)-amino]-methyl}-N*5*-butyl-N*2*-cyclopentylmethyl-N*2*-ethyl-N*5*-methyl-pyridine-2,5-diamine] | 720 nM
CCN(CC1CCCC1)c1ncc([N+](=O)[O-])cc1CN(Cc1cc(C(F)(F)F)cc(C(F)(F)F)c1)c1nnn(C)n1 [Compound 8, (3-{[(3,5-Bis-trifluoromethyl-benzyl)-(2-methyl-2H-tetrazol-5-yl)-amino]-methyl}-5-nitro-pyridin-2-yl)-cyclopentylmethyl-ethyl-amine] | 630 nM

Further lines, results first:

IC50 | Compound
140 nM | CCN(CC1CCCC1)c1ncc(SC)cc1CN(Cc1cc(C(F)(F)F)cc(C(F)(F)F)c1)c1nnn(C)n1 [Compound 3, (3-{[(3,5-Bis-trifluoromethyl-benzyl)-(2-methyl-2H-tetrazol-5-yl)-amino]-methyl}-5-methylsulfanyl-pyridin-2-yl)-cyclopentylmethyl-ethyl-amine]
300 nM | CCN(CC1CCCC1)c1ncc(C)cc1CN(Cc1cc(C(F)(F)F)cc(C(F)(F)F)c1)c1nnn(C)n1 [Compound 5, (3-{[(3,5-Bis-trifluoromethyl-benzyl)-(2-methyl-2H-tetrazol-5-yl)-amino]-methyl}-5-methyl-pyridin-2-yl)-cyclopentylmethyl-ethyl-amine]
230 nM | CCN(CC1CCCC1)c1ncc(I)cc1CN(Cc1cc(C(F)(F)F)cc(C(F)(F)F)c1)c1nnn(C)n1 [Compound 6, (3-{[(3,5-Bis-trifluoromethyl-benzyl)-(2-methyl-2H-tetrazol-5-yl)-amino]-methyl}-5-iodo-pyridin-2-yl)-cyclopentylmethyl-ethyl-amine]
